According to patent US20130303619A1, “Antibacterial Compositions” (priority 2009, published 2013):
“Also recorded” adds a separate entry of the source.

Columns and labels:
[1] = test system: LL-37 mRNA in cheek epithelial cells; test: In vivo LL-37 mRNA expression by human cheek epithelial cells after mouthwash (RT-PCR); settings: mouthwash with EGCG (40 ug/ml), after only 5 minutes from application
Source text: (§1) Cheek epithelium is utilized for monitoring LL-37 mRNA and protein expression to determine if Trihydroxybenzoate Derivatives of the Invention can induce LL-37 in vivo. […] The isolated cheek cells are also subjected to Western blot analysis for protein expression of LL-37 by cheek epithelium using anti-LL-37 monoclonal antibody. The expression of both the proform (18 kD, also termed as hCAP18) and secreted form (4.5 kD) of LL-37 (12) in cheek epithelial cells is induced by Trihydroxybenzoate Derivatives of the Invention (e.g., EGCG (95% SIGMA), or by EGCG (90% Teavigo)).

[2] = test system: hBD2 mRNA expression in OBA9 cells; test: hBD2 mRNA expression in human gingival epithelial cells; format: cell-based; settings: 4-hour exposure, 0.1, 1.0 and 10 ug/ml
Procedure: (§2) Both LL-37 and hBD2 mRNA expression in OBA9 cells are induced after a 4-hour exposure to green tea polyphenol extract, Teaflan 90S (EGCG 50%, ECG 13%), and purified EGCG (95% pure, SIGMA) at concentrations of 0.1, 1.0 and 10 ug/ml. EGCG increases the production of LL-37 and hBD2 at the mRNA level in the human gingival epithelial cell line OBA9 (FIG. 1) as well as the human lung carcinoma cell line A549.

LL-37 in OBA9 cells = test: EGCG-induced LL-37 (ELISA) in OBA9 cells over expressing DDX5; format: cell-based, human; settings: EGCG 40 ng/ml, 2 hours
Procedure: The OBA9 cells transfected with either DDX5 over-expression vector (pK0203) or control empty vector (pKO108) were cultured for 48 h. Thereafter, the OBA9 cells were incubated with or without EGCG (40 ng/ml) for 2 hours, and the culture supernatant was subjected to ELISA for the detection of LL-37.

hBD2 mRNA in A549 = test: hBD2 mRNA level in lung carcinoma cell line; format: cell-based; settings: human lung carcinoma cell line A549
Procedure: as §2

[3] = test system: LL-37 mRNA expression in OBA9 cells; test: LL-37 mRNA expression in human gingival epithelial cells; format: cell-based; settings: 4-hour exposure, 0.1, 1.0 and 10 ug/ml
Procedure: as §2

[4] = test system: LL37 protein in OBA9 cells; test: EGCG-induced LL37 protein expression in OBA9 cells with or without DDX5 RNAi (ELISA); format: cell-based, human; settings: OBA9 culture supernatant, EGCG 40 ng/ml, 30 min to 24 hours
Procedure: (§3) Our hypothesis that THBC induction of LL-37 expression is mediated via binding to DDX5 is further supported by the finding that inhibition of DDX5 expression in gingival epithelial cells (OBA9) reduces EGCG-mediated LL-37 expression. Confluent OBA9 cells in a tissue culture plate are treated with or without DDX5-specific siRNA sequences (three different siRNA sequences specific to DDX5 are examined). After 24 h and 48 h incubation, total RNA and proteins are extracted, respectively, from the OBA9 cells. […] The OBA9 cells pre-incubated with non-target siRNA and DDX5-siRNA for 48 hours are restimulated with EGCG (40 ng/ml) for 30 min, and mRNA expression for LL-37 and […] was detected by RT-PCR. […] Effects of DDX5-siRNA treatment on EGCG-mediated LL-37 protein expression by OBA9 cells is measured by ELISA.
The OBA9 cells which were pre-treated with control non-target siRNA or DDX5-siRNA (#A) for 48 hours, as shown in 1-B, were incubated with EGCG (40 ng/ml) for different periods from 30 min to 24 hours. The supernatant harvested from the OBA9 cell culture was subjected to ELISA for LL37 protein.

[5] = target: T1, DEAD box polypeptide 5 (DDX5) (Homo sapiens, UniProt P17844); test: Pull down assay with benzoic acid-coupled beads and OBA9 cell lysate, Mass-Spec; format: binding; settings: beads incubated with OBA9 cell lysate
T1 construct: endogenous in cells; host or cells: OBA9 human gingival epithelial cell line (lysate)
Source text: FIG. 1 is a schematic showing a pull down assay to determine counter ligand of benzoic acids expressed on OBA9 cells is DDX5. OBA9 cells were harvested and dissolved in lysis buffer. The resulting cell lysis solution was reacted with Sephadex beads conjugated with 2,6-dihydroxy benzoic acid (DHBC) and 2,3,4-trihydroxy benzoic acid (THBC). The cellular components pulled down with beads were separated in SDS-PAGE gel, and stained with Coomassie blue. The 35 kD and 70 kD bands specific to 2,3,4-THBC were subjected to Mass-Spec analysis at Tufts University Core Facility. The procedure for pull down assay includes preparation of cell lysate from gingival epithelial cell (OBA9) culture; preparation of beads conjugated with tri-hydroxy benzoic acid (THBC); incubation of beads with OBA9 cell lysate; remove unbound protein by washing beads; the proteins bound to beads are separated in SDS-PAGE; distinct bands to 2,3,4-THBC are sent for Mass-Spec service; and identification of molecular finger print of 2,3,4-THBC binding ligand.
FIG. 2 is a schematic including the molecular finger print found in 70 kD band specific to 2,3,4-THDC that is DDX5 (SEQ ID NO: 1). The 35 kD, 70 kD and 90 kD bands specific to 2,3,4-THBC were subjected to Mass-Spec analysis service. […] Result data sheet that identified DDX5 in 70 kD band is shown.
In order to confirm if LL-37 induction in epithelial cells by EGCG is dependent on the activation of cell ligand (either cytoplasm or cell surface), or previously known anti-oxidant effects by EGCG, 3,4,5-tri-hydroxy benzoic acid-coupled beads and control 2,6-di-hydroxy benzoic acid-coupled beads are utilized to pull down the possible ligand for 3,4,5-tri-hydroxy benzoic acid. After incubation of each bead with cell lysate of OBA9, the beads are washed, and the cellular materials that bind to the beads are separated in SDS-PAGE. At least 3 bands (MW 35 kD, 70 kD and 90 kD), which are distinct to 3,4,5-tri-hydroxy benzoic acid, are detected, as compared to the other beads (control, 2,6-di-hydroxy benzoic acid and control plain beads). […]

[6] = test system: LL-37 protein in cheek epithelial cells; test: LL-37 protein expression by cheek epithelium (Western blot); format: in vivo, human; settings: isolated cheek cells, anti-LL-37 monoclonal antibody
Source text: as §1

LL-37 mRNA in A549 = test: LL-37 mRNA level in lung carcinoma cell line; format: cell-based; settings: human lung carcinoma cell line A549
Procedure: as §2

LL37 mRNA in OBA9 cells = test: EGCG-induced LL37 mRNA expression in OBA9 cells with or without DDX5 RNAi (RT-PCR); format: cell-based, human; settings: EGCG 40 ng/ml, 30 minutes
Procedure: as §3
After treatment of OBA9 cells with control non-target siRNA or DDX5-siRNA (#A) for 48 hours, the OBA9 cells were incubated with or without EGCG (40 ng/ml) for 30 minutes. The total RNA isolated from the OBA9 cells was subjected to RT-PCR for LL37 mRNA as well as internal control β-actin mRNA.

[7] = test system: Actinobacillus actinomycetemcomitans Y4 (Aa Y4); test: Bactericidal effect of culture supernatant of treated OBA9 cells; format: cell-based; settings: 20 ug/ml; compared with non-treated, catechin- or 2,4-dihydroxy benzoic acid-treated OBA9 supernatant
Procedure: The culture supernatant isolate from OBA9 is treated with 1) EGCG, 2) catechin, 3) 2,4-dihydroxy benzoic acid, and 4) 3,4,5-tri-hydroxy benzoic acid (20 ug/ml, respectively) and examined for their bactericidal effects on Actinobacillus actinomycetemcomitans Y4 (Aa Y4).

[8] = test system: LL-37 expression by OBA9 cells; test: LL-37 expression by OBA9 cells with Sepharose-coupled benzoic acid isomers; format: cell-based, human; settings: isomer coupled to NBS-activated Sepharose gel
Source text: In order to investigate the structure-function relationship underlying EGCG-mediated induction of LL-37 from human gingival epithelial cell line OBA9, different isomers of benzoic acids are examined for their effects on the LL-37 expression by OBA9 cells. Each isomer of benzoic acids is coupled to NBS-activated Sepharose gel (Pierce) using a cross-linker, 1-Ethyl-3-[3-dimethylaminopropyl]carbodiimide (EDC, Pierce). The isomers of benzoic acids include 1) 2,6-di-hydroxy benzoic acid, 2) 2,3,4-tri-hydroxy benzoic acids, 3) 3,4,5-tri-hydroxy benzoic acids, and 4) 2,4,6-tri-hydroxy benzoic acids.

LL-37 from OBA9 cells = test: In vitro induction of LL-37 protein (ELISA) from OBA9 cells; format: cell-based, human; settings: 20 ug/ml
Procedure: (§4) Using ELISA systems to detect LL-37 (Forsyth in-house) and hBD2 (Peprotech), 33 natural compounds (20 ug/ml) are examined for their ability to induce LL-37 and hBD2 from OBA9 cells. Although the sensitivity of the hBD2 ELISA is higher than that of LL-37 ELISA (10 pg/ml vs 1 ng/ml, respectively), the induction of LL-37 is more prominent than hBD2 (FIG. 2 A&B, LL-37; C&D, hBD2). […] Bactericidal effects of LL-37 and hBD2 are, in general, potent.
The trihydroxybenzoate derivatives of the Invention and rosemarinic acid, courmarin, catechin gallate, epicatechin gallate, epigallocatechin, and tannic acid are tested to induce LL-37 from OBA9 cells in the absence of EGCG.

hBD2 from OBA9 cells = test: In vitro induction of hBD2 protein (ELISA) from OBA9 cells; format: cell-based, human; settings: 20 ug/ml
Procedure: as §4

T1 sequence (P17844 whole entry): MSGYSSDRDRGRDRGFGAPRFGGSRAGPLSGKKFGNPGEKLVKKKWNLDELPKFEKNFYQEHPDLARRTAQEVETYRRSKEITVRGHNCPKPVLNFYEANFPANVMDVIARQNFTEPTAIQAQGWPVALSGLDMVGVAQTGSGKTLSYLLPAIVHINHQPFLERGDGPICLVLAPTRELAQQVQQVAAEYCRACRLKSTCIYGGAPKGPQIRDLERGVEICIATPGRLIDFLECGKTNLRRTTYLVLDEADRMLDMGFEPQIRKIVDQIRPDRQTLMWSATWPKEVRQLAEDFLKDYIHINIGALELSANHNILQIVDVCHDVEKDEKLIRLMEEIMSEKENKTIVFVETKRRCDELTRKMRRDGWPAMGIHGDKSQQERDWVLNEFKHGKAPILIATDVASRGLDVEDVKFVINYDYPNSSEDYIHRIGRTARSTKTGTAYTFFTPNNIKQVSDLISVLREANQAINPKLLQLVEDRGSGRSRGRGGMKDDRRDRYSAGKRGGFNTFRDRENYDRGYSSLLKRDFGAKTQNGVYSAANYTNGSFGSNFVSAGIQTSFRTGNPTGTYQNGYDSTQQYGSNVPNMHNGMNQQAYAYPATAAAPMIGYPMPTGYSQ

For `O=C(O[C@@H]1Cc2c(O)cc(O)cc2O[C@@H]1c1cc(O)c(O)c(O)c1)c1cc(O)c(O)c(O)c1` [EGCG, epigallocatechin gallate], the “LL-37 mRNA expression by cheek epithelial cells (RT-PCR)” value [1] was “up-regulated”, the “hBD2 mRNA expression” value [2] was “induced” and the “LL-37 expression induced by EGCG (ELISA)” value (LL-37 in OBA9 cells; OBA9 with no vector, empty vector pK0108 or pK0203) was “induced the LL-37 expression in all three conditions”. The “LL-37 expression induced by EGCG in OBA9 transfected with DDX5 over-expression vector versus no vector or empty vector” value (LL-37 in OBA9 cells; P<0.05, Student t test) was “significantly higher”, the “production of hBD2 at the mRNA level” value (hBD2 mRNA in A549) was “increases” and the “LL-37 mRNA expression” value [3] was “induced”. The “LL37 protein expression after EGCG stimulation (ELISA)” value [4] was “detected as early as 30 min until 24 hours; also recorded: increased in a time dependent manner”, the “binding to DDX5 (pull down, 70 kD band)” value [5] was “binds to DDX5” and the “expression of proform (18 kD) and secreted form (4.5 kD) of LL-37 in cheek epithelial cells (Western blot)” value [6] was “induced”. For the same compound, the “production of LL-37 at the mRNA level” value (LL-37 mRNA in A549) was “increases”, the “LL37 mRNA expression induced by EGCG” value (LL37 mRNA in OBA9 cells) was “induced” and the “bactericidal effects of culture supernatant of treated OBA9 cells on Aa Y4” value [7] was “more bactericidal effects”.

For `O=C(O)c1c(O)cccc1O` [2,6-di-hydroxy benzoic acids, 2,6-dihydroxy benzoic acid, reference compound], the “induction of LL-37 expression by OBA9 cells” value (“induction of LL-37 expression” below) [8] was “not”.

In the case of `O=C(/C=C/c1ccc(O)c(O)c1)O[C@H](Cc1ccc(O)c(O)c1)C(=O)O` [Rosemarinic acid], the “induction of LL-37 (ELISA)” value (LL-37 from OBA9 cells) is reported as “little or no induction”.

With `O=C(O)c1ccc(O)c(O)c1O` [2,3,4-tri-hydroxy benzoic acids, 2,3,4-trihydroxybenzoic acid] the “induction of LL-37 expression” value [8] was “show the induction of LL-37 expression” and the “binding to DDX5 (pull down, 70 kD band)” value [5] was “only found in 2,3,4-THDC beads”.

`O=C(O[C@@H]1Cc2c(O)cc(O)cc2O[C@@H]1c1cc(O)c(O)c(O)c1)c1cc(O)c(O)c(O)c1` [EGCG (90% Teavigo)] was tested, and the “expression of proform (18 kD) and secreted form (4.5 kD) of LL-37 in cheek epithelial cells (Western blot)” value [6] was “induced”.

In the case of `CCCCCCCCCCCCCC(=O)O[C@@H]1[C@@H](C)[C@@]2(O)[C@@H](C=C(CO)C[C@]3(O)C(=O)C(C)=C[C@@H]23)[C@@H]2C(C)(C)[C@]12OC(C)=O` [PMA], the “induction of LL-37 (ELISA)” value (LL-37 from OBA9 cells) is reported as “induced LL-37” and the “induction of hBD2 (ELISA)” value (hBD2 from OBA9 cells) is reported as “minimal induction activities”.

With Poly IC the “induction of LL-37 (ELISA)” value (LL-37 from OBA9 cells) was “induced LL-37” and the “induction of hBD2 (ELISA)” value (hBD2 from OBA9 cells) was “minimal induction activities”.

In the case of `O=C(O)c1cc(O)c(O)c(O)c1` [3,4,5-tri-hydroxy benzoic acid, 3,4,5-trihydroxybenzoic acid], the “induction of LL-37 (ELISA)” value (LL-37 from OBA9 cells) is reported as “more potent than 3,4,-dihydroxy benzoate”, the “induction of LL-37 expression” value [8] is reported as “show the induction of LL-37 expression” and the “binding to DDX5 (pull down, 70 kD band)” value [5] is reported as “binds to DDX5 expressed in gingival epithelial cells with high affinity”. For the same compound, the “bactericidal effects of culture supernatant of treated OBA9 cells on Aa Y4” value [7] was “more bactericidal effects”.

With `O=C(O)c1c(O)cc(O)cc1O` [2,4,6-tri-hydroxy benzoic acids, reference compound] the “induction of LL-37 expression” value [8] was “not”.

For `O=c1ccc2ccccc2o1` [courmarin], the “induction of LL-37 (ELISA)” value (LL-37 from OBA9 cells) was “little or no induction”.
